Assay results from US20230110998A1, “Compositions and Methods for Treatment of Cytokine Storm and Cytokine Release Syndrome” (Yinuoke Medicine Science Technology Company Ltd., priority 2020, published 2023).

Tests used:
IL-6 = assay: Serum IL-6 levels in LPS-induced CRS; format: in vivo, BALB/c mice; conditions: 50 µg LPS i.p.; 10 mg/kg single i.p. injection; serum 2 hours after challenge; versus PBS, p=0.0023
Protocol: 8-week-old male BALB/c mice were used for these studies. The mice were challenged with 50 µg LPS (Sigma Cat. No. L2630) dissolved in 0.1 mL PBS, a dosage designed to ensure all animals survived the challenge, via intraperitoneal injection. Mouse serum was collected 2 hours after the challenge, and IL-6 was measured with the Mouse Il-6 Flex Set (BD Biosciences Cat. No. 558301).
Within 2 minutes of the LPS injection, test compound ketorolac (racemic mixture) or control vehicle (PBS) was administered at 10 mg per kg body weight by single intraperitoneal injection. 5 mice were included per experimental group.

LPS-induced CRS [1] = assay: Acute diarrhea caused by high-dose LPS-induced CRS; format: in vivo, BALB/c mice; conditions: LPS 15 mg/kg i.p.
Protocol: 8-10-week-old female BALB/c mice were used for these studies. The mice were challenged with LPS at 15 mg per kg body weight, a dosage which had been empirically determined to induce diarrhea in 100% of tested subjects, via intraperitoneal injection. The mice were monitored for diarrhea symptoms, with diarrhea defined by the presence of watery stools 6 hours after treatment. Within 2 minutes of the LPS injection, test compound ketorolac (racemic mixture, suspended in PBS) or control vehicle (PBS) was administered at 0.1 mg (corresponding to 5 mg/kg) by single intraperitoneal injection.

LPS-induced CRS [2] = assay: Survival of mice with LPS-induced CRS; format: in vivo, BALB/c mice; conditions: 0.2 mg LPS i.p.
Protocol: 8-week-old female BALB/c mice were used for these studies. […] The mice were challenged with 0.2 mg LPS (Sigma Cat. No. L2630) dissolved in 0.1 mL PBS via intraperitoneal injection. The mice were monitored for health condition and survival for a minimum of seven days. […]

LPS-induced CRS [3] = assay: Body weight loss caused by low-dose LPS-induced CRS; format: in vivo, BALB/c mice; conditions: 0.05 mg LPS i.p.; 0.3 mg (15 mg/kg) oral; next day; compared with aspirin, p=0.0267
Protocol: 8-week-old female BALB/c mice were used for these studies. The mice were challenged with 0.05 mg LPS (Sigma Cat. No. L2630) via intraperitoneal injection. Body weight was measured before LPS challenge and the next day after the challenge.
Within 2 minutes of LPS injection, test compound (R)-ketorolac (0.3 mg, corresponding to 15 mg/kg), aspirin (0.3 mg, corresponding to 15 mg/kg), or control vehicle (PBS) was orally administered.

COX1 = COX1 (Homo sapiens, UniProt P23219); conditions: no test described; cited from earlier work
COX1, sequence (P23219 24-599): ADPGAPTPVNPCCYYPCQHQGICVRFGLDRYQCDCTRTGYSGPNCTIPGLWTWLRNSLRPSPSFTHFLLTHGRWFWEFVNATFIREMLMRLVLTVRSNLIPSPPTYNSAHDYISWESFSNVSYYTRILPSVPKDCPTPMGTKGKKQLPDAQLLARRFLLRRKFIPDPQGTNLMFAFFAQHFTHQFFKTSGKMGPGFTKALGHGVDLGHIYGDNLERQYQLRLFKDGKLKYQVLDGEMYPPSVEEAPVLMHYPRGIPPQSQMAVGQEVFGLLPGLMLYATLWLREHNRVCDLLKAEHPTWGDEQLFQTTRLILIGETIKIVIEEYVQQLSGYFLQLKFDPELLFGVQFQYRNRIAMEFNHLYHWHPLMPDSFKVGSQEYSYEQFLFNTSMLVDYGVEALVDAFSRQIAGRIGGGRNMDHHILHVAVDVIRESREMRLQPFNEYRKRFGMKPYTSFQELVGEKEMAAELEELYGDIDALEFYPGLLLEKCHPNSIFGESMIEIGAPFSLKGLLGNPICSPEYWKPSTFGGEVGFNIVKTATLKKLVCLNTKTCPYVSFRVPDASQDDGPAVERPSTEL

COX2 = molecular target: T1, COX2 (Homo sapiens, UniProt P35354); conditions: no test described; cited from earlier work
T1 sequence (P35354 18-604): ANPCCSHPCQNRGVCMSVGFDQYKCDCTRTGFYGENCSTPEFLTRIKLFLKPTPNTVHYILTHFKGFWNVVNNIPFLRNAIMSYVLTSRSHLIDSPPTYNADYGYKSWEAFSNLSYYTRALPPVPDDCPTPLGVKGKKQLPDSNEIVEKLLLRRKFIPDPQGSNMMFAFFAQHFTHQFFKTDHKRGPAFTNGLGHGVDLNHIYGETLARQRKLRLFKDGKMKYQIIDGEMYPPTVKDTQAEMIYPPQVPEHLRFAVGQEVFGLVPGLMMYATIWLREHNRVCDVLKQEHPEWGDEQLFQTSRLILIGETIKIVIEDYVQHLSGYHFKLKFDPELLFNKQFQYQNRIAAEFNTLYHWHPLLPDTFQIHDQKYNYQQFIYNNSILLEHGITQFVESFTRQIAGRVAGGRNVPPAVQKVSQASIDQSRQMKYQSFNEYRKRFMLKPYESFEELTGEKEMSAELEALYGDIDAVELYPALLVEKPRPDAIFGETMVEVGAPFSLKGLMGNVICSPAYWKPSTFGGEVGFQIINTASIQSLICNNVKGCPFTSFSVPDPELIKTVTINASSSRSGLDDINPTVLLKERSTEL

[4] = test system: C26 tumor cell-induced cytokine storm; assay: Tumor-induced cytokine storm model, serum cytokines (Mouse-Cytokine-32-Plex assay); conditions: gavage 0.2 mg daily for six days, serum on day 7, compared to PBS controls
Protocol: Cytokine storm inducing C26 tumor cells were cultured in Advanced RPMI 1640 medium supplied with 5% fetal bovine serum and 1% penicillin/streptomycin and maintained in a 5% CO2, 37° C. humidified incubator. Tumor cells with viability of >90% were chosen for the study. Viable tumor cells (1 × 10^6 cells) were re-suspended in 100 µL of PBS and subcutaneously injected into the left flank of mice. All procedures were performed in laminar flow hood following sterile techniques.
6-8 week BALB/c male and female mice were used for these studies. Following tumor inoculation, the animals were returned to the cage. The mice were monitored for the appearance of palpable tumor and cytokine storm development by observing health condition change and testing serum cytokines with Mouse-Cytokine-32-Plex assay.
2-4 mice were included in each experimental group. On day 7, mouse blood samples were collected and allowed to clot for one hour at room temperature. The samples were then centrifuged for 15 min at 3,000 rpm (1500 × g) at 4° C. Thirty microliters of serum per treatment animal were assessed for cytokine profiles using a Mouse-Cytokine-32-Plex assay (Eve Technologies Corporation, Calgary, AB, Canada).

O=C(c1ccccc1)c1ccc2n1CCC2C(=O)O (racemic) [ketorolac]
serum IL-6 levels (IL-6): decreased serum IL-6 levels | decrease of acute diarrhea occurrence (LPS-induced CRS [1]; 0.1 mg (5 mg/kg) i.p., versus control): 65% | diarrhea present, % of mice (LPS-induced CRS [1]; 0.1 mg (5 mg/kg) single i.p. injection, watery stools 6 hours after treatment, n=8, control 87.5%): 12.5%

O=C(c1ccccc1)c1ccc2n1CC[C@H]2C(=O)O [(R)-ketorolac]
survival rate (LPS-induced CRS [2]; 10 mg/kg single dose, surviving mice / n=6): ⅚ | survival rate (LPS-induced CRS [2]; 10 mg/kg, control 33.3%): 83.3% | increase in survival rate (LPS-induced CRS [2]; 10 mg/kg, versus PBS control): 50% | body weight loss (LPS-induced CRS [3]): significantly reduced body weight loss | activity against COX1 (COX1): not active | activity against COX2 (COX2): not active | serum concentration of G-CSF [4]: effective in reducing | serum concentration of GM-CSF [4]: effective in reducing | serum concentration of IL-1β [4]: effective in reducing | serum concentration of IL-6 [4]: effective in reducing | serum concentration of IL-7 [4]: effective in reducing | serum concentration of IL-10 [4]: effective in reducing | serum concentration of LIF [4]: effective in reducing | serum concentration of MCP-1 [4]: effective in reducing | serum concentration of MIP-1A [4]: effective in reducing | serum concentration of TNF-α [4]: effective in reducing
